Assay results taken from PMC11274643, “Design, Synthesis, Characterization, and Cytotoxicity of New Pyrazolylmethylene-2-thioxoimidazolidin-4-one Derivatives towards Androgen-Sensitive LNCaP Prostate Cancer Cells” (Biomolecules, 2024).

Key:
AR+LNCaP cells [1] = assay: DNA content at cell cycle stages (Propidium Iodide flow cytometry); format: cell-based, human; conditions: IC50 concentration, 1 nM DHT
Method: The amount of DNA contents of AR^+LNCaP cells stimulated with 1 nM DHT and treated with representative test compounds 3i and 3k at the different stages of the cell cycle were quantitatively evaluated as described previously. […] The Ab139418–Propidium Iodide Flow Cytometry Kit for Cell Cycle Analysis (ab139418, Abcam, Cambridge, UK) was employed for this assay following the procedures provided by the supplier.
Firstly, the ab139418-Propidium Iodide Flow Cytometry Kit for Cell Cycle Analysis (Bio vision, Boston, MA, USA) was used to quantify DNA contents at each cell cycle stage as an indicator of the cell cycle growth arrest.

AR+LNCaP cells [2] = assay: Cell apoptosis assay (Annexin V-FITC, flow cytometry); format: cell-based, human; conditions: IC50 concentration, 1 nM DHT, 24 h
Method: Cell apoptosis assay was performed to ensure the efficacy of compounds 3i and 3k against the progression of AR^+LNCaP tumor cell growth in the presence of 1 nM DHT. Untreated AR^+LNCaP and Enzalutamide-treated AR^+LNCaP were used in this assay as negative and positive controls, respectively. AR^+LNCaP cells were precultured in 25 cm^2 flasks. Briefly, 1 nM DHT was then added to the growing cells. […] AR^+LNCaP cells were harvested and fixed with 70% (v/v) ethanol in FBS (Sigma-Aldrich, Germany), then maintained at 4 °C overnight. The cells were resuspended in FBS containing 0.1% (v/v) Triton X-100, 40 µg/mL […], and 0.1 mg/mL RNase then incubated in a dark chamber at 37 °C for 30 min. A flow-cytometer (Becton Dickinson, San Jose, CA, USA) supplemented with an argon ion laser at a wavelength of 488 nm was used to analyze the AR^+LNCaP cell apoptotic stages. Based on the protocol described by Ozgur et al. (2003), analysis of the data was implemented using Multicycle Software (Phoenix Flow Systems, San Diego, CA, USA; http://www.phoenixflow.com/index.html).
The active compounds 3i and 3k were further analyzed to evaluate their antitumor properties against the growth of the AR^+LNCaP prostate cancer cell line. […] Untreated AR^+LNCaP cells and Enzalutamide reference drug were also used as negative and positive controls in this assay, respectively.

[3] = test system: Wi38 normal human lung fibroblast cell line; assay: MTT in vitro cytotoxicity assay, 24 h incubation; format: cell-based; conditions: WI-38
Method: (§1) The antitumor properties of pyrazolylmethylene-2-thioxoimidazolidin-4-one derivatives (3a–p) against androgen-sensitive (AR^+LNCaP; ATCC CRL-1740, Accession: CVCL_0395) and androgen-insensitive (AR^-PC-3; ATCC CRL-1435, Accession: CVCL_D5ZS) human prostate cancer cell lines in addition to normal human lung fibroblast cell line (Wi38, Accession: CVCL_2759) were evaluated by MTT assay. AR^+LNCaP, AR^-PC-3, and Wi38 cell lines were purchased frozen in liquid nitrogen from Egyptian Company for Production of Vaccines, Sera and Drugs, Cairo, Egypt (VACSERA). Tumor cell lines were stored as monolayer cultures in DMEM supplemented with 10% FBS and 1% penicillin–streptomycin. MTT assay was carried out as described previously in the literature. In brief, AR^+LNCaP, AR^-PC-3, and Wi38 cells were cultured into 96-well plates containing 100 µL of culture medium per each well. […] A control containing only culture medium was also applied. The assay was performed in triplicate. The cells were incubated overnight to grow at 37 °C in 5% CO2. After removing the growth medium, 100 µL of MTT (0.4 mg/mL of PBS) were added. After 24 h of incubation, the supernatant was removed and 100 µL of DMSO (Sigma Aldrich, Germany) were then added to each sample. Absorbance at 550 nm was measured. The formula (Reading of extract/Reading of negative control) × 100 was applied to calculate the viability percentage. The IC50 value of test compounds (3a–p) was also determined using CPE measurements of normal Wi38 cells (normal human lung fibroblast cells). The MTT assay was repeated with the test compounds (3i, 3k, 3o, 3j, 3p, and 3m) using the three cell types which were stimulated by 1 nM DHT after 48 h of incubation. IC50 values were estimated using Graph Pad Prism computer software (International Scientific Community, San Diego, CA, USA) from linear regression analysis of the concentration–response curves plotted for each tested compound [36].
(§2) In vitro cytotoxicity assay was performed to elucidate the antitumor properties of the synthesized derivatives of pyrazolylmethylene-2-thioxoimidazolidin-4-one. […] The cytotoxicity assay was performed using MTT assay as described in the Materials and Methods Section 2.4.1. The test compounds were dissolved in DMSO as stock solutions (<0.5% (v/v)) and stored in the dark at −20 °C. The human prostate cancer cells and normal human lung fibroblast cells were subjected to variable doses of the compounds for 24 h.

[4] = test system: AR-PC-3 androgen-insensitive human prostate cancer cell line; assay: MTT in vitro cytotoxicity assay, 24 h incubation; format: cell-based; conditions: for IC50: Homo sapiens, MTT; for Selective Index Wi38/PC-3: ratio of IC50 values
Method: as §1, §2

[5] = test system: AR+LNCaP androgen-sensitive human prostate cancer cell line; assay: MTT in vitro cytotoxicity assay, 24 h incubation; format: cell-based; conditions: for IC50: Homo sapiens, MTT; for Selective Index Wi38/Lncap: ratio of IC50 values
Method: as §1, §2

[6] = test system: active human caspase-3 in AR+LNCaP cells; assay: Detection of active Caspase 3 in AR+LNCaP cell lysates (Invitrogen Elisa kit); format: cell-based; parameters: Caspase 3 Conc. (Average): unit not given here; conditions: for active Caspase 3 fold change compared to untreated cells / induction of active caspase 3 as a percentage of the reference drug Enzalutamide: IC50 concentration; for active Caspase 3 fold change compared to untreated cells: 1 nM DHT, AR+LNCaP lysate; for induction of active caspase 3 as a percentage of the reference drug Enzalutamide: AR+LNCaP; for Caspase 3 fld / Caspase 3: LNCaP, supplement lab report; for Caspase 3 fld: fold of control; for Caspase 3 Conc. (Average): supplement ELISA read-out, average of two wells
Method: Untreated AR^+LNCaP and Enzalutamide-treated AR^+LNCaP were used as negative and positive controls, respectively. AR^+LNCaP cells were cultured in 96-well plates at a cell density of 1 × 10^4 cells/well. Cells were then lysed with 50 µL lysis buffer/well supplemented with the Invitrogen Elisa kit for detection of active human caspase-3 (Invitrogen, Camarillo, CA, USA). Plates were frozen at −80 °C for 30 min and then thawed. The lysate was mixed with 2 Z-DEVD-R110 substrate and incubated at room temperature for 30 min. A fluorescence microplate reader (Tecan, Mainz-Kastel, Germany), was used to measure fluorescence via excitation at 496 nm and emission detection at 520 nm. Values were normalized with total protein content. Active caspase 3 accumulation was determined based on standard dilution series of Human Caspase-3 samples provided with the kit. […]

[7] = test system: Wi38 normal human lung fibroblast cell line; assay: MTT cytotoxicity assay in presence of 1 nM DHT, 48 h incubation; format: cell-based; conditions: WI-38, read-out: IC50 Wi38
Method: as §1
(§3) The assay was performed in the presence of dihydrotestosterone (1 nM DHT) for 48 h of incubation as previously described. DHT is a potent inducer of androgens that enhances prostate cancer disease progression.

[8] = test system: AR-PC-3 androgen-insensitive human prostate cancer cell line; assay: as above; format: cell-based
Method: as §1, §3

[9] = test system: AR+LNCaP androgen-sensitive human prostate cancer cell line; assay: as above; format: cell-based; conditions: for IC50: Homo sapiens; for Selectivity AR-/AR+: IC50 PC-3 / IC50 LNCaP
Method: as §1, §3

With `O=C1NC(=S)NC1=Cc1cn(-c2ccc(F)cc2)nc1-c1ccc(Cl)cc1` [Compound 3i, 5-((3-(4-Chlorophenyl)-1-(4-fluorophenyl)-1H-pyrazol-4-yl)methylene)-2-thioxoimidazolidin-4-one] the “DNA Content (%) G0–G1” value (AR+LNCaP cells [1]) was 58.33%, the “DNA Content (%) G2/M” value (AR+LNCaP cells [1]) was 22.48% and the “DNA Content (%) S” value (AR+LNCaP cells [1]) was 19.19%. For the same compound, the “Early Apoptosis (%)” value (AR+LNCaP cells [2]) was 11.47%, the “Late Apoptosis (%)” value (AR+LNCaP cells [2]) was 7.55% and the “Necrotic Cells (%)” value (AR+LNCaP cells [2]) was 2.77%. The “Total Apoptosis (%)” value (AR+LNCaP cells [2]) was 21.79%, the IC50 [3] was 29.93 ± 0.12 µM and the IC50 [4] was 19.5 ± 0.21 µM. The “Selective Index Wi38/PC-3” value [4] was 1.5, the IC50 [5] was 12.07 ± 0.09 µM and the “Selective Index Wi38/Lncap” value [5] was 2.5. The melting point was 168 to 170 °C, the “active Caspase 3 fold change compared to untreated cells” value (“active Caspase 3 fold change” for short) [6] was 4.7 fold and the “induction of active caspase 3 as a percentage of the reference drug Enzalutamide” value [6] was 71.4%. For the same compound, the “Caspase 3 fld” value [6] was 4.667, the “Caspase 3” value [6] was 358.9 pg/mL and the “Caspase 3 Conc. (Average)” value [6] was 358.9. It also gave a CC50 [7] of 21.93 ± 0.14 µM, an IC50 [8] of 15.52 ± 0.12 µM and an IC50 [9] of 6.08 ± 0.04 µM. For the same compound, the “Selectivity AR-/AR+” value [9] was 2.6.
For `O=C1NC(=S)NC1=Cc1cn(-c2ccc(F)cc2)nc1-c1ccc(C(F)(F)F)cc1` [Compound 3k, 5-((1-(4-Fluorophenyl)-3-(4-(trifluoromethyl)phenyl)-1H-pyrazol-4-yl)methylene)-2-thioxoimidazolidin-4-one], the “DNA Content (%) G0–G1” value (AR+LNCaP cells [1]) was 65.21%, the “DNA Content (%) G2/M” value (AR+LNCaP cells [1]) was 19.18% and the “DNA Content (%) S” value (AR+LNCaP cells [1]) was 15.61%. The “Early Apoptosis (%)” value (AR+LNCaP cells [2]) was 12.11%, the “Late Apoptosis (%)” value (AR+LNCaP cells [2]) was 16.89% and the “Necrotic Cells (%)” value (AR+LNCaP cells [2]) was 6.02%. The “Total Apoptosis (%)” value (AR+LNCaP cells [2]) was 35.02%, the IC50 [3] was 32.81 ± 0.08 µM and the IC50 [4] was 22.5 ± 0.29 µM. For the same compound, the “Selective Index Wi38/PC-3” value [4] was 1.5, the IC50 [5] was 10.3 ± 0.14 µM and the “Selective Index Wi38/Lncap” value [5] was 3.2. The melting point was 210 to 212 °C, the “active Caspase 3 fold change” value [6] was 5.4 fold and the “induction of active caspase 3 as a percentage of the reference drug Enzalutamide” value [6] was 81.2%. For the same compound, the “Caspase 3 fld” value [6] was 5.304, the “Caspase 3” value [6] was 407.9 pg/mL and the “Caspase 3 Conc. (Average)” value [6] was 407.9. The CC50 [7] was 19.81 ± 0.07 µM, the IC50 [8] was 13.9 ± 0.18 µM and the IC50 [9] was 5.22 ± 0.12 µM. The “Selectivity AR-/AR+” value [9] was 2.7.
For `Cc1ccc(-c2nn(-c3ccc(F)cc3)cc2C=C2NC(=S)NC2=O)cc1` [Compound 3m, 5-((1-(4-Fluorophenyl)-3-(p-tolyl)-1H-pyrazol-4-yl)methylene)-2-thioxoimidazolidin-4-one], the IC50 [3] was 30.54 ± 0.08 µM, the IC50 [4] was 22.5 ± 0.46 µM and the “Selective Index Wi38/PC-3” value [4] was 1.3. For the same compound, the IC50 [5] was 12.97 ± 0.06 µM, the “Selective Index Wi38/Lncap” value [5] was 2.4 and the melting point was 167 to 169 °C. The “active Caspase 3 fold change” value [6] was 3.2 fold, the “induction of active caspase 3 as a percentage of the reference drug Enzalutamide” value [6] was 48.6% and the “Caspase 3 fld” value [6] was 3.176. The “Caspase 3” value [6] was 244.3 pg/mL, the “Caspase 3 Conc. (Average)” value [6] was 244.3 and the CC50 [7] was 23.33 ± 0.19 µM. The IC50 [8] was 13.1 ± 0.14 µM, the IC50 [9] was 10.5 ± 0.11 µM and the “Selectivity AR-/AR+” value [9] was 1.3.
For `O=C1NC(=S)NC1=Cc1cn(-c2ccc(C(F)(F)F)cc2)nc1-c1ccc(F)cc1` [Compound 3o, 5-((3-(4-Fluorophenyl)-1-(4-(trifluoromethyl)phenyl)-1H-pyrazol-4-yl)methylene)-2-thioxoimidazolidin-4-one], the IC50 [3] was 25.08 ± 0.08 µM, the IC50 [4] was 21.08 ± 0.1 µM and the “Selective Index Wi38/PC-3” value [4] was 1.2. For the same compound, the IC50 [5] was 12.66 ± 0.11 µM, the “Selective Index Wi38/Lncap” value [5] was 2.0 and the melting point was 205 to 207 °C. The “active Caspase 3 fold change” value [6] was 3.5 fold, the “induction of active caspase 3 as a percentage of the reference drug Enzalutamide” value [6] was 53.4% and the “Caspase 3 fld” value [6] was 3.490. The “Caspase 3” value [6] was 268.4 pg/mL, the “Caspase 3 Conc. (Average)” value [6] was 268.4 and the CC50 [7] was 22.35 ± 0.13 µM. The IC50 [8] was 16.4 ± 0.17 µM, the IC50 [9] was 11.75 ± 0.07 µM and the “Selectivity AR-/AR+” value [9] was 1.4.
With `O=C1NC(=S)NC1=Cc1cn(-c2ccc(C(F)(F)F)cc2)nc1-c1ccc(C(F)(F)F)cc1` [Compound 3p, 5-((1,3-Bis(4-(trifluoromethyl)phenyl)-1H-pyrazol-4-yl)methylene)-2-thioxoimidazolidin-4-one] the IC50 [3] was 25.35 ± 0.12 µM, the IC50 [4] was 23.2 ± 0.12 µM and the “Selective Index Wi38/PC-3” value [4] was 1.0. The IC50 [5] was 12.11 ± 0.08 µM, the “Selective Index Wi38/Lncap” value [5] was 2.1 and the melting point was 223 to 225 °C. For the same compound, the “active Caspase 3 fold change” value [6] was 4.4 fold, the “induction of active caspase 3 as a percentage of the reference drug Enzalutamide” value [6] was 66.6% and the “Caspase 3 fld” value [6] was 4.351. The “Caspase 3” value [6] was 334.6 pg/mL, the “Caspase 3 Conc. (Average)” value [6] was 334.6 and the CC50 [7] was 20.18 ± 0.14 µM. The IC50 [8] was 15.2 ± 0.25 µM, the IC50 [9] was 5.91 ± 0.13 µM and the “Selectivity AR-/AR+” value [9] was 2.7.
